Results: ChEMBL document CHEMBL1955784, “Novel 5-substituted 1H-tetrazoles as cyclooxygenase-2 (COX-2) inhibitors” (Bioorg Med Chem Lett, 2012)

Columns and labels:
[1] = biological target: T1, Prostaglandin G/H synthase 1 (Ovis aries, UniProt P05979); assay: Competitive inhibition of ovine COX1 by enzyme immunoassay
T1 sequence (P05979 whole entry): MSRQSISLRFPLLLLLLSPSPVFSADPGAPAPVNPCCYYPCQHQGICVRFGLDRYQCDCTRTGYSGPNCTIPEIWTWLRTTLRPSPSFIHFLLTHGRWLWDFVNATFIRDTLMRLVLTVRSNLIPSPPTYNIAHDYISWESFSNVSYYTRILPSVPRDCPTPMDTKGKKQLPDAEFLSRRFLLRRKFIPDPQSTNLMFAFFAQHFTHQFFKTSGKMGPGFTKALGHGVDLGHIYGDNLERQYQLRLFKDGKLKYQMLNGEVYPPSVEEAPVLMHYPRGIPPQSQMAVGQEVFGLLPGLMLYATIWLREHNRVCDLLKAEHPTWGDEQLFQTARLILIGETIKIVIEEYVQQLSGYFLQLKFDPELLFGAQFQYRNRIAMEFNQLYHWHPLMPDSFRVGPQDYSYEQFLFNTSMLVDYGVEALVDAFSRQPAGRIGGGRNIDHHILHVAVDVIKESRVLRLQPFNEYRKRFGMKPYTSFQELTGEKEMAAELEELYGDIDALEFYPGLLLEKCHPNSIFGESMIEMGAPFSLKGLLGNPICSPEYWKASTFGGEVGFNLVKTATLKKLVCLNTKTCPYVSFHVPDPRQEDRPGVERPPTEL

[2] = biological target: T2, Prostaglandin G/H synthase 2 (Homo sapiens, UniProt P35354); assay: Competitive inhibition of human recombinant COX2 by enzyme immunoassay
T2 sequence (P35354 whole entry): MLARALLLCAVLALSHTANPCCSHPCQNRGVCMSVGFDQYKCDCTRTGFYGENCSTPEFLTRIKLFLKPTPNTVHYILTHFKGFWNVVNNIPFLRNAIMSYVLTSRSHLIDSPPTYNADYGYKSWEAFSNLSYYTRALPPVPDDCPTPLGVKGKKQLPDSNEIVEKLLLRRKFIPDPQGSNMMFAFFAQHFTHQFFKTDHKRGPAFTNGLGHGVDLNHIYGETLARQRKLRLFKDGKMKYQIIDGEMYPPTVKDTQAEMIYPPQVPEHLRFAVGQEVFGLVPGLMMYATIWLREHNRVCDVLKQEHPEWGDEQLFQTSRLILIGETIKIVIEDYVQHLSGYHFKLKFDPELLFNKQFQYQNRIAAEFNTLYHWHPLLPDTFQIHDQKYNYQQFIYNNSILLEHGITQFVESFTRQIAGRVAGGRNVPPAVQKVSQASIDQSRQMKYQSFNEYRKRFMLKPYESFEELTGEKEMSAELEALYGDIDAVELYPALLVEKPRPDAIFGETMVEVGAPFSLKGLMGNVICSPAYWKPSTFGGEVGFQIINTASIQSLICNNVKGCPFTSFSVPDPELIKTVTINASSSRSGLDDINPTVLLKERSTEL

Row | Structure (SMILES) | IC50 [1] | IC50 [2]
1 | Cc1ccc(-c2nnnn2-c2ccc(S(N)(=O)=O)cc2)cc1 | > 100 µM | > 100 µM
2 | NS(=O)(=O)c1ccc(-n2nnnc2-c2ccc(Cl)cc2)cc1 | > 100 µM | 62 µM
3 | CS(=O)(=O)c1ccc(-n2nnnc2-c2ccc(F)cc2)cc1 | > 100 µM | 15 µM
4 | CS(=O)(=O)c1ccc(-n2nnnc2-c2ccc(Cl)cc2)cc1 | > 100 µM | 32 µM
5 | CS(=O)(=O)c1ccc(-n2nnnc2-c2ccc([N+](=O)[O-])cc2)cc1 | > 100 µM | 69 µM
